Experiments:
FLT3 = molecular target: T1, FLT3 (Homo sapiens, UniProt P36888); test: TR-FRET kinase activity assay, FLT3; assay type: biochemical; conditions: ATP at Km, 60 minutes
T1 sequence (P36888 27-993): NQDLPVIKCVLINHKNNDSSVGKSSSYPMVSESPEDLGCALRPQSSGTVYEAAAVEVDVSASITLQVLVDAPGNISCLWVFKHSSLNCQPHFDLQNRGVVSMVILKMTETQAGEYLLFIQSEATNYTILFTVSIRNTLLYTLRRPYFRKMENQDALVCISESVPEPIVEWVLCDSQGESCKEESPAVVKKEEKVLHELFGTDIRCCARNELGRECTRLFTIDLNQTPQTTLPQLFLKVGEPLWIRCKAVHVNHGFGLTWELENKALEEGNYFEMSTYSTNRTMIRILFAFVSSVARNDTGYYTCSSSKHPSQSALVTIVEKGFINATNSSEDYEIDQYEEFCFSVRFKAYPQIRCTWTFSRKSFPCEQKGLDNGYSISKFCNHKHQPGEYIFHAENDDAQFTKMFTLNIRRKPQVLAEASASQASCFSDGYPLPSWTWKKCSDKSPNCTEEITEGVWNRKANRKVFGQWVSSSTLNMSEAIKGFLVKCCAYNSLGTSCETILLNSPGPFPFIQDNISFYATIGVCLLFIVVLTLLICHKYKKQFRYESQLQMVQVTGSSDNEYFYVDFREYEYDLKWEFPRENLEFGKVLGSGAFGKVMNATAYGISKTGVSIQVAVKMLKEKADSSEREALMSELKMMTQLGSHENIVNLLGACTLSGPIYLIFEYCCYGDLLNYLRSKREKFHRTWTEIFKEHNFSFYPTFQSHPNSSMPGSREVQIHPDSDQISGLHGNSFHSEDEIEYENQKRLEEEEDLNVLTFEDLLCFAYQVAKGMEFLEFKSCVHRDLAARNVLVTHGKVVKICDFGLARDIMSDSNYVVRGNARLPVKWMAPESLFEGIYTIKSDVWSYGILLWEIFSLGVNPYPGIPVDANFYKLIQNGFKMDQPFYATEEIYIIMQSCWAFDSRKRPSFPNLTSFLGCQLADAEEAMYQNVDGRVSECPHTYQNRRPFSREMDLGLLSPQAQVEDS
Method in brief: (§1)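 IC50 reflects the drop in TR-FRET between Eu anti-phosphotyrosine antibody and labelled peptide after a 60-minute room-temperature reaction. Buffer was 50 mM HEPES pH 7.5 with 10 mM MgCl2, 1 mM EGTA, 0.01% Brij 35 and 1 mM DTT, with ATP at Km per enzyme and EDTA quench.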

MERTK = molecular target: T2, MERTK (Homo sapiens, UniProt Q12866); test: TR-FRET kinase activity assay, MERTK; assay type: biochemical
T2 sequence (Q12866 21-999): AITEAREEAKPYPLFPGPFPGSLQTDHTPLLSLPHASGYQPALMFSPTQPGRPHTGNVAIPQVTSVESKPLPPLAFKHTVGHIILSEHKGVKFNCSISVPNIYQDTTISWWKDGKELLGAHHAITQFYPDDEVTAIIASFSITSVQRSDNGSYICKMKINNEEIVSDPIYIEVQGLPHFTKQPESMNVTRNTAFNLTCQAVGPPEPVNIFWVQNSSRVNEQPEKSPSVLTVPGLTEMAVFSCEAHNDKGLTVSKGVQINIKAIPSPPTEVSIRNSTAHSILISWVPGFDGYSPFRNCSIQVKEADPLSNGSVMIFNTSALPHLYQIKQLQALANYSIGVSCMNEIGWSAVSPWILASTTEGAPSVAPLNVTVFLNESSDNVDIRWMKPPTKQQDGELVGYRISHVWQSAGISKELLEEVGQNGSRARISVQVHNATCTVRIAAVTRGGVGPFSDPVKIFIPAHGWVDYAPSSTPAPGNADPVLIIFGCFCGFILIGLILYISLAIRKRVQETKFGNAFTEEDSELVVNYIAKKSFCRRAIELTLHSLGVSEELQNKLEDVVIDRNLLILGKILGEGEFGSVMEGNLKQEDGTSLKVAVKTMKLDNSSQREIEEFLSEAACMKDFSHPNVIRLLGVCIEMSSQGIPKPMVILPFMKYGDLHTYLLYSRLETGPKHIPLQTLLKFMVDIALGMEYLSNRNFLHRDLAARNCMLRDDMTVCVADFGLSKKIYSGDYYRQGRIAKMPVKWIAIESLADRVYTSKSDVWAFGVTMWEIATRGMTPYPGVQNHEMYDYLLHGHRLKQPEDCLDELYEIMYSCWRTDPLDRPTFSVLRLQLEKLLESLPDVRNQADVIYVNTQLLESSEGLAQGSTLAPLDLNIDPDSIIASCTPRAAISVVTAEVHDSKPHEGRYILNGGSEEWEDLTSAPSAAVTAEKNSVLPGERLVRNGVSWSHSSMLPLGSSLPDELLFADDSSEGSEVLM
Method in brief: as §1

For `COC[C@H](C)Nc1ncc2c(-c3cnn([C@@H]4CO[C@H]5OCC[C@H]54)c3)cc([C@H]3CC[C@H](O)CC3)n2n1` [Compound 422], the IC50 (FLT3) was 100 to 1000 nM, the IC50 (MERTK; TR-FRET activity assay, ATP at Km, 60 minutes, read-out: Mer IC50) was at most 100 nM and the “FLT3/Mer ratio (FLT3 IC50/Mer IC50)” value (MERTK; ratio calculated as FLT3 IC50/Mer IC50) was “+++ (“+++” represents a ratio of >100)”.

Reference: US11040981B2, “Pyrrolotriazine compounds and methods of inhibiting TAM kinases” (Syros Pharmaceuticals, Inc., priority 2017, dated 2021)
